Measurements published in patent US20230014181A1, “CULTURE SYSTEM AND METHODS FOR IMPROVED MODELING OF NEUROLOGICAL CONDITIONS” (Genentech, Inc., priority 2021, published 2023).
Where a SMILES comes first, the peptide text is derived from it. [ ]: non-standard residue; d: D form. Nle = CCCC[C@H](N)C(=O)O

Tests used:
[1] = tested on: human iPSC neurons, astrocytes and microglia treated with 5 μM sAβ42s; assay: Focused small molecule screen, triple culture (neuron, astrocyte, microglia), rescue from sAβ42s toxicity; assay type: cell-based
Outline: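 A hit was any compound giving ≥30% rescue of dendrite area (MAP2), synapse count, CUX2 cell count or axon area when dosed against 5 μM sAβ42s toxicity. Testing used iPSC-derived double (neuron/astrocyte) or triple (plus microglia) cultures, at four concentrations of 50, 25, 12.5 and 6.25 μM for double and 50, 12.5, 3.1 and 0.78 μM for triple cultures.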

[2] = tested on: human iPSC neurons and astrocytes treated with 5 μM sAβ42s; assay: Focused small molecule screen, double culture (neuron, astrocyte), rescue from sAβ42s toxicity, high content imaging; assay type: cell-based; details: double culture, 5 μM sAβ42s
Procedure: FIGS. 11A-11D show synapse % rescue versus MAP2% rescue (FIGS. 11A-11B) and beta III tubulin % rescue versus MAP2% rescue (FIGS. 11C-11D), in neurons and astrocytes (FIGS. 11A and 11C) or neurons, astrocytes, and microglia (FIGS. 11B and 11D) treated with 5 μM sAβ42s and small molecules from a focused screen of known neuroprotective agents at multiple concentrations (50 μM, 25 μM, 12.5 μM and 6.25 μM (double culture), 50 μM, 12.5 μM, 3.1 μM and 0.78 μM (triple culture). Small molecules that prevented toxicity in dendrites (MAP2), synapses (Synapsin 1/2), cell count (CUX2), or axons ([…]) at or above 30% were considered hits (red dotted line).
Neurons from both NSC lines were evaluated by immunofluorescence staining. Briefly, cells were fixed with 4% PFA and 4% sucrose at room temperature for 20 minutes using Bravo automation. Fixed cells were then washed 2 times with PBS using Biotek 406 microplate washer (Beckman Coulter), followed by permeabilization and blocking by incubation with a solution containing 1×PBS, 0.1% Triton X-100, 2% donkey serum, and 1% BSA at room temperature for 30 minutes. Blocking solution was removed and cells were incubated with primary antibodies in blocking solution overnight at 4° C. After washing 6 times with PBS on Biotek 406 cell plate washer (Beckman Coulter), cells were then incubated with fluorophore-conjugated secondary antibodies for 1 hour at room temperature in the dark to avoid photobleaching. Cells were then washed 6 more times in with PBS before imaging. Fluorescent images were captured using IN Cell 6000 confocal microscope (GE Healthcare Life Sciences). The image analysis was performed with IN Cell 6000 analysis software.
Prior to experimentation, media volume in wells containing neurons was equalized with liquid handling automation (Bravo) in order to ensure precise control of concentrations. All Aβ42 oligomers, anti-Aβ, small molecules, inflammatory cytokines were prepared at 10× concentration and added to Neuronal Culture Media at an appropriate volume. For the repeated dosing experiments, the media were refreshed 50% at each dosing first, before adding Aβ42 oligomers, and/or anti-Aβ antibody at the specified final concentration.
In double (neuron, astrocyte) and triple (neuron, astrocyte, microglia) cultures, each small molecule listed in Table 1 was tested in the AD model paradigm at up to four concentrations. Molecules that characterized ≥30% rescue in any of the four measurements of dendrites area (MAP2), synapses count (synapsin 1/2), or cell count (CUX2), or axon area (Beta III Tubulin; “BT3”)) were classified as hits (FIGS. 11A-11D, Table 2, and Table 3).

Compound	% B3T rescue ([1]; 0.78 μM compound) [%]	% MAP2 rescue ([1]; 0.78 μM compound) [%]	% Synapse rescue ([1]; 0.78 μM compound) [%]	% B3T rescue ([1]; 12.50 μM compound) [%]	% MAP2 rescue ([1]; 12.50 μM compound) [%]	% Synapse rescue ([1]; 12.50 μM compound) [%]	% B3T rescue ([1]; 50.00 μM compound) [%]	% MAP2 rescue ([1]; 50.00 μM compound) [%]	% Synapse rescue ([1]; 50.00 μM compound) [%]	% B3T rescue ([2]; 6.25 μM compound) [%]	% Cux2 rescue ([2]; 6.25 μM compound) [%]	% MAP2 rescue ([2]; 6.25 μM compound) [%]	% Synapse rescue ([2]; 6.25 μM compound) [%]	% B3T rescue ([2]; 12.5 μM compound) [%]	% Cux2 rescue ([2]; 12.5 μM compound) [%]	% MAP2 rescue ([2]; 12.5 μM compound) [%]	% B3T rescue ([2]; 50 μM compound) [%]	% Cux2 rescue ([2]; 50 μM compound) [%]	% MAP2 rescue ([2]; 50 μM compound) [%]	% Synapse rescue ([2]; 50 μM compound) [%]	also measured
MDL 28170	30	19	10	33	31	8	73	47	41	18	81	33	10	22	74	33	47	57	26	23	% Synapse rescue ([2]; 12.5 μM compound): 9%; % B3T rescue ([2]; 25 μM compound): 25%; % Cux2 rescue ([2]; 25 μM compound): 84%; % MAP2 rescue ([2]; 25 μM compound): 36%; % Synapse rescue ([2]; 25 μM compound): 11%
C=C[C@@]1(C)CC(=O)[C@]2(O)[C@@]3(C)[C@@H](O)CCC(C)(C)[C@@H]3[C@H](OC(=O)CCN(C)C)[C@H](OC(C)=O)[C@@]2(C)O1.Cl [NKH 477]				49	9	8	81	53	38	38	21	39	7	38	24	45	38	45	44	−5	% B3T rescue ([1]; 3.13 μM compound): 42%; % MAP2 rescue ([1]; 3.13 μM compound): 17%; % Synapse rescue ([1]; 3.13 μM compound): 12%; % Synapse rescue ([2]; 12.5 μM compound): 5%; % B3T rescue ([2]; 25 μM compound): 35%; % Cux2 rescue ([2]; 25 μM compound): 21%; % MAP2 rescue ([2]; 25 μM compound): 43%; % Synapse rescue ([2]; 25 μM compound): −4%
O=C(Nc1cccc(Br)c1)c1cccc(S(=O)(=O)N2CCCCCC2)c1 [AK 7]	79	1	3	81	53	42	56	28	17								42	0	−17	−5	% B3T rescue ([1]; 3.13 μM compound): 77%; % MAP2 rescue ([1]; 3.13 μM compound): 18%; % Synapse rescue ([1]; 3.13 μM compound): 13%
CCCC[C@@H](C=O)NC(=O)[C@H](CC(C)C)NC(=O)[C@H](CC(C)C)NC(C)=O [Ac-Leu-Leu-Nle-CHO] (Ac-Leu-Leu-[Nle]-aldehyde)	38	21	14	44	48	18				14	85	31	0	0	87	18	0	78	23	2	% B3T rescue ([1]; 3.13 μM compound): 57%; % MAP2 rescue ([1]; 3.13 μM compound): 55%; % Synapse rescue ([1]; 3.13 μM compound): 38%; % Synapse rescue ([2]; 12.5 μM compound): −4%; % B3T rescue ([2]; 25 μM compound): −11%; % Cux2 rescue ([2]; 25 μM compound): 87%; % MAP2 rescue ([2]; 25 μM compound): 20%; % Synapse rescue ([2]; 25 μM compound): −5%
O=C1NC(=O)c2c1c1c3ccccc3n3c1c1c2c2ccccc2n1C1CCC3O1 [SB 218078]	38	10	14				−11	53	19								72	−39	−92	−15	
